Measurements published in PMC3063124 (The Journal of neuroscience : the official journal of the …, 2011).
Values joined by “and” are separate entries in the source; they are usually repeats but may differ in a detail not shown here. Equal entries are not always repeated. Where two headings read alike, the source gives them in different places. Marks after values point to notes of the source that are not given here.

Experiments:
[1] = target: T1, GluN1/GluN2D (Rattus norvegicus, UniProt Q62645); format: cell-based; conditions: for time constant for agonist deactivation (τweighted): absence of QNZ46, continuous presence of glycine
[2] = target: GluN1/GluN2D K779Y (Rattus norvegicus, UniProt Q62645, K779Y); experiment: Two-electrode voltage-clamp recordings, mutant receptor in Xenopus oocytes; format: cell-based
[3] = target: GluN1/GluN2D K779Y (Rattus norvegicus, UniProt P35439+Q62645, K779Y); experiment: as above; format: cell-based
[4] = target: T1, GluN1/GluN2D; format: cell-based
[5] = extracellular oocyte recording solution; ref Mosley et al., 2010; cited from earlier work
[6] = target: GluN1/GluN2A (Rattus norvegicus, UniProt Q00959); format: cell-based
[7] = target: GluN1/GluN2B (Rattus norvegicus, UniProt Q00960); format: cell-based
GluN1/GluN2B, sequence (Q00960 27-1482, other chains not shown): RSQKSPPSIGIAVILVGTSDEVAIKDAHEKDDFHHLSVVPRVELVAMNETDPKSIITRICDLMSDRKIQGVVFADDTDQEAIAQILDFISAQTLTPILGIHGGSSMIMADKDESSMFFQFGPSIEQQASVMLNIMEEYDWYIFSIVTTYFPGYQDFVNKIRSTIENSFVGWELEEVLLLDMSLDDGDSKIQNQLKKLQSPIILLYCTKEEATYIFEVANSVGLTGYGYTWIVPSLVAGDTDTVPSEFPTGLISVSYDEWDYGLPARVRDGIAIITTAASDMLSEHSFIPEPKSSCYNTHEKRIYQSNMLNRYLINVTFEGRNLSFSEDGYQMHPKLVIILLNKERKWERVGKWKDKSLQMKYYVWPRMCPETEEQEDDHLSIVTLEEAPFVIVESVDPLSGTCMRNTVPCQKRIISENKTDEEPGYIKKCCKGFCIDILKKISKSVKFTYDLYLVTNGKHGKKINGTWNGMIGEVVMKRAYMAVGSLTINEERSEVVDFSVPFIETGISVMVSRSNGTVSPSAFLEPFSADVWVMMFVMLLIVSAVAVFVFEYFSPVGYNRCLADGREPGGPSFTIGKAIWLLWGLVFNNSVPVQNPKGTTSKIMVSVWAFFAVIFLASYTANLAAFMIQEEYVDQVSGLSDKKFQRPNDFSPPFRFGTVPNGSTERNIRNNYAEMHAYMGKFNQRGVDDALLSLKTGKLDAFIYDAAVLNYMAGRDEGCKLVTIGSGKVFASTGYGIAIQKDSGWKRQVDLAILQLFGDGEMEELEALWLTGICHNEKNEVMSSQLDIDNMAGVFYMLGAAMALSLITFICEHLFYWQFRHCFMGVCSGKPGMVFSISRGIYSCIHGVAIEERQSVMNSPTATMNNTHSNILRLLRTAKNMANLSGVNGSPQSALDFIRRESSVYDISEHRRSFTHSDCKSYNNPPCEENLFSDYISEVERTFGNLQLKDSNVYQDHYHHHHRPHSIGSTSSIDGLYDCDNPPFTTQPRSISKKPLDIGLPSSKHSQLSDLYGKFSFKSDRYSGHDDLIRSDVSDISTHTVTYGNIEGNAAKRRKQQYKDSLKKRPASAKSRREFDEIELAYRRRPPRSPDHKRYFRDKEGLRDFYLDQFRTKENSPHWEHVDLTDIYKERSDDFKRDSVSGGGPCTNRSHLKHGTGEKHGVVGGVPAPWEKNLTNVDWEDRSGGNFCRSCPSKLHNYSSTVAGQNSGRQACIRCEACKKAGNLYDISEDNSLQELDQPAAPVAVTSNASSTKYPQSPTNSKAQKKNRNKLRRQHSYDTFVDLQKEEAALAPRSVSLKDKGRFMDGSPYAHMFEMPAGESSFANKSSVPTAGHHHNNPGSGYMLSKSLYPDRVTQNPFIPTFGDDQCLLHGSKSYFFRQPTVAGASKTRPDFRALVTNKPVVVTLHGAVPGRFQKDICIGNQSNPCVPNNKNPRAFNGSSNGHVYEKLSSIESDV

[8] = target: GluN1/GluN2D Y729A (Rattus norvegicus, UniProt P35439+Q62645, Y729A); experiment: Two-electrode voltage-clamp recordings, mutant receptor in Xenopus oocytes; format: cell-based
[9] = target: GluN1/GluN2D Y729A (Rattus norvegicus, UniProt Q62645, Y729A); experiment: as above; format: cell-based
[10] = target: GluN1/GluN2D QEQY/HDYS (Rattus norvegicus, UniProt Q62645, E700D/Q699H/Q701Y/Y702S); experiment: as above; format: cell-based
[11] = target: GluN1/GluN2D QEQY/HDYS (Rattus norvegicus, UniProt P35439+Q62645, E700D/Q699H/Q701Y/Y702S); experiment: as above; format: cell-based
[12] = target: GluN1/2A-(2D S2) chimera (Rattus norvegicus, UniProt Q00959+Q62645); experiment: Two-electrode voltage-clamp recordings, chimeric receptor in Xenopus oocytes; format: cell-based
[13] = target: GluN1/GluN2D Q701Y (Rattus norvegicus, UniProt P35439+Q62645, Q701Y); experiment: Two-electrode voltage-clamp recordings, mutant receptor in Xenopus oocytes; format: cell-based
[14] = target: GluN1/GluN2D Q701Y (Rattus norvegicus, UniProt Q62645, Q701Y); experiment: as above; format: cell-based
[15] = target: GluN1/GluN2D Y723A (Rattus norvegicus, UniProt P35439+Q62645, Y723A); experiment: as above; format: cell-based
[16] = target: GluN1/GluN2D Y723A (Rattus norvegicus, UniProt Q62645, Y723A); experiment: as above; format: cell-based
[17] = target: GluN1/GluN2D A752V (Rattus norvegicus, UniProt Q62645, A752V); experiment: as above; format: cell-based
[18] = target: GluN1/GluN2D A752V (Rattus norvegicus, UniProt P35439+Q62645, A752V); experiment: as above; format: cell-based
[19] = target: GluN1/2A-(2D S1+S2) chimera (Rattus norvegicus, UniProt Q00959+Q62645); experiment: Two-electrode voltage-clamp recordings, chimeric receptor in Xenopus oocytes; format: cell-based
[20] = target: GluN1/GluN2D L705F (Rattus norvegicus, UniProt Q62645, L705F); experiment: Two-electrode voltage-clamp recordings, mutant receptor in Xenopus oocytes; format: cell-based
[21] = target: GluN1/GluN2D L705F (Rattus norvegicus, UniProt P35439+Q62645, L705F); experiment: as above; format: cell-based
[22] = target: T2, GluN1/GluN2D (Rattus norvegicus, UniProt P35439+Q62645); format: cell-based
[23] = target: GluN1/GluN2D QEQY/HDYS + L705F + K779Y (Rattus norvegicus, UniProt P35439+Q62645, E700D/K779Y/L705F/Q699H/Q701Y/Y702S); experiment: Two-electrode voltage-clamp recordings, mutant receptor in Xenopus oocytes; format: cell-based
[24] = target: GluN1/GluN2D QEQY/HDYS + L705F + K779Y (Rattus norvegicus, UniProt Q62645, E700D/K779Y/L705F/Q699H/Q701Y/Y702S); experiment: as above; format: cell-based
[25] = target: GluN1/2A-(2D S1) chimera (Rattus norvegicus, UniProt Q00959+Q62645); experiment: Two-electrode voltage-clamp recordings, chimeric receptor in Xenopus oocytes; format: cell-based
[26] = target: GluN1/GluN2D M726A (Rattus norvegicus, UniProt Q62645, M726A); experiment: Two-electrode voltage-clamp recordings, mutant receptor in Xenopus oocytes; format: cell-based
[27] = target: GluN1/GluN2D M726A (Rattus norvegicus, UniProt P35439+Q62645, M726A); experiment: as above; format: cell-based
[28] = target: GluN1/GluN2C (Rattus norvegicus, UniProt Q00961); format: cell-based
GluN1/GluN2C, sequence (Q00961 20-1237, other chains not shown): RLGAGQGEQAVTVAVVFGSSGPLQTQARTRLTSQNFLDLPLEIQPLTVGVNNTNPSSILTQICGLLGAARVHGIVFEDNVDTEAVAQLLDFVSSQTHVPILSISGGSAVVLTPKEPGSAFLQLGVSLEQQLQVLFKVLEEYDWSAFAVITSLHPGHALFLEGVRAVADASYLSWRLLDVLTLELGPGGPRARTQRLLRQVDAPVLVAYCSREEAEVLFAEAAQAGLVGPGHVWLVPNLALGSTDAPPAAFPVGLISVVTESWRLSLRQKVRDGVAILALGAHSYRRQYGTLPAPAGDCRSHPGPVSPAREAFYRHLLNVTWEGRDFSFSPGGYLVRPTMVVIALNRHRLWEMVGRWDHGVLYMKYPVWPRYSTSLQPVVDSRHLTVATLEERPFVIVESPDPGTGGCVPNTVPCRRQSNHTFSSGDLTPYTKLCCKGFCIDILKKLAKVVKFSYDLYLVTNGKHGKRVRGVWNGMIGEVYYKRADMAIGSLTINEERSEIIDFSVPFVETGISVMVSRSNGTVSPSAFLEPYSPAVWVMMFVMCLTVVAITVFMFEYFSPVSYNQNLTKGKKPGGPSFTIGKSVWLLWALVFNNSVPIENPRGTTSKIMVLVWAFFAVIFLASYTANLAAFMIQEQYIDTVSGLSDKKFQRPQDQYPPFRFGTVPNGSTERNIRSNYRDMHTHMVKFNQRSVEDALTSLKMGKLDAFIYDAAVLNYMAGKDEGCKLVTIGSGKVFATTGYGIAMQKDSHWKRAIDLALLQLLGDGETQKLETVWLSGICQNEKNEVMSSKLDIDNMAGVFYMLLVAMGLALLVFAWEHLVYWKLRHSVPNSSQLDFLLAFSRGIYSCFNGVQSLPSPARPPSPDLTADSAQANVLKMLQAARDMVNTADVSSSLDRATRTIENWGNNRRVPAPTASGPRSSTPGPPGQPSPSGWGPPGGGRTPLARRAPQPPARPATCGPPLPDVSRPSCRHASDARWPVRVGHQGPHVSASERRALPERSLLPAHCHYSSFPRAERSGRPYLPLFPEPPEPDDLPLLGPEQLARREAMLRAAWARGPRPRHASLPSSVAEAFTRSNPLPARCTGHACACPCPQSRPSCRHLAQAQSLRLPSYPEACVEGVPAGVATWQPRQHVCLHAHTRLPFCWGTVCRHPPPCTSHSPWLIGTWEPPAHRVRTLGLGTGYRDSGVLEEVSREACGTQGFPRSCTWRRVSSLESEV

[29] = target: GluN1/GluN2A HDYS/QEQY + F680L + Y754K (Rattus norvegicus, UniProt Q00959, D675E/F680L/H674Q/S677Y/Y676Q/Y754K); experiment: Two-electrode voltage-clamp recordings, mutant receptor in Xenopus oocytes; format: cell-based
[30] = target: GluN1/GluN2A HDYS/QEQY + F680L + Y754K (Rattus norvegicus, UniProt P35439+Q00959, D675E/F680L/H674Q/S677Y/Y676Q/Y754K); experiment: as above; format: cell-based
[31] = target: T2, GluN1/GluN2D; conditions: read-out: EC50 of agonist
[32] = fold shift relative to GluN1/GluN2D
[33] = fixed during fitting to the Hill equation
[34] = 1 μM QNZ46 plus glycine continuously present, after removal of glutamate
[35] = 3 μM QNZ46 plus glycine continuously present, after removal of glutamate

CN[C@H](CC(=O)O)C(=O)O [NMDA, N-methyl-D-aspartate, reference compound]
time constant for agonist deactivation (τweighted) [1]: 92 ms

COc1ccc2nc(/C=C/c3cccc([N+](=O)[O-])c3)n(-c3ccc(C(=O)O)cc3)c(=O)c2c1 [QNZ46, (E)-4-(6-methoxy-2-(3-nitrostyryl)-4-oxoquinazolin-3(4H)-yl)-benzoic acid]
nH (Hill slope) [2]: 1.2
Relative IC50 (IC50 2X / IC50 2D) ([2]; fold shift relative to GluN2D): 4.9
IC50 [3]: 19 ± 2 µM
nH (Hill slope) [4]: 1.1
selectivity for GluN2C- and GluN2D-containing receptors over receptors containing GluN2A or GluN2B [4]: ~ 50 fold
Relative IC50 (IC50 2X / IC50 2D) [4, 32]: 1.0
difference in QNZ46 IC50 values between GluN2A- and GluN2D-containing receptors ([4]; rat, xenopus oocytes): ~ 50 fold and 50 fold
maximum solubility [5]: 70 µM
nH (Hill slope) [6, 33]: 1.0 ^a
Relative IC50 (IC50 2X / IC50 2D) [6, 32]: 47
nH (Hill slope) [7, 33]: 1.0 ^a
Relative IC50 (IC50 2X / IC50 2D) [7, 32]: 49
IC50 [8]: 0.7 ± 0.04 µM
nH (Hill slope) [9]: 1.0
Relative IC50 (IC50 2X / IC50 2D) ([9]; fold shift relative to GluN2D): 0.2
nH (Hill slope) [10]: 1.0
Relative IC50 (IC50 2X / IC50 2D) ([10]; fold shift relative to GluN2D): 2.6
IC50 [11]: 10 ± 1 µM
nH (Hill slope) [12]: 1.1
Relative IC50 (IC50 2X / IC50 2D) ([12]; fold shift relative to GluN2D): 1.2
IC50 [13]: 7.7 ± 0.7 µM
nH (Hill slope) [14]: 1.0
Relative IC50 (IC50 2X / IC50 2D) ([14]; fold shift relative to GluN2D): 2.0
IC50 [15]: 7.6 ± 0.6 µM
nH (Hill slope) [16]: 1.3
Relative IC50 (IC50 2X / IC50 2D) ([16]; fold shift relative to GluN2D): 1.9
nH (Hill slope) [17]: 1.0
Relative IC50 (IC50 2X / IC50 2D) ([17]; fold shift relative to GluN2D): 4.1
IC50 [18]: 16 ± 1 µM
nH (Hill slope) [19]: 1.1
Relative IC50 (IC50 2X / IC50 2D) ([19]; fold shift relative to GluN2D): 1.2
nH (Hill slope) [20]: 1.1
Relative IC50 (IC50 2X / IC50 2D) ([20]; fold shift relative to GluN2D): 5.9
IC50 [21]: 23 ± 2 µM
τinhibition ([1]; 1 μM QNZ46 applied after activation): 356 ± 6 ms
Deactivation % slow ([1]; 1 μM QNZ46 plus glycine continuously present): 78%
Deactivation τfast [1, 34]: 1210 ± 150 ms
Deactivation τslow [1, 34]: 5640 ± 160 ms
τinhibition ([1]; 1 μM QNZ46 present before, during, and after activation): 344 ± 6 ms
τinhibition ([1]; 3 μM QNZ46 applied after activation): 268 ± 11 ms
Deactivation % slow ([1]; 3 μM QNZ46 plus glycine continuously present): 79%
Deactivation τfast [1, 35]: 1340 ± 50 ms
Deactivation τslow [1, 35]: 7100 ± 180 ms
τinhibition ([1]; 3 μM QNZ46 present before, during, and after activation): 244 ± 5 ms
voltage-dependence of inhibition ([1]; 10 μM QNZ46, 1000 μM glutamate plus 100 μM glycine): independent of membrane holding potential
τinhibition ([1]; 10 μM QNZ46 applied after activation): 145 ± 13 ms
Deactivation % slow ([1]; 10 μM QNZ46 plus glycine continuously present): 100%
Deactivation τslow ([1]; 10 μM QNZ46 plus glycine continuously present, mono-exponential fit): 8150 ± 330 ms
τinhibition ([1]; 10 μM QNZ46 present before, during, and after activation): 116 ± 3 ms
τinhibition ([1]; 20 μM QNZ46 applied after activation): 91 ± 11 ms
Deactivation % slow ([1]; 20 μM QNZ46 plus glycine continuously present): 100%
Deactivation τslow ([1]; 20 μM QNZ46 plus glycine continuously present, mono-exponential fit): 10130 ± 280 ms
τinhibition ([1]; 20 μM QNZ46 present before, during, and after activation): 74 ± 2 ms
increase in QNZ46 potency by glutamate binding to GluN2D ([1]; IC50 with glutamate vs glycine alone or no agonists): > 10 fold
τoff for QNZ46 ([1]; continuous presence of glutamate): 460 ms
dependence of inhibition on agonist concentration ([1]; increasing concentrations of glutamate or glycine): independent of agonist concentration
increase of time constants for deactivation (τweighted) in the presence of QNZ46 ([1]; up to, QNZ46 1 – 20 μM, after removal of glutamate): ~ 2 fold
Kd [22]: 4.9 µM
inhibition at 1 µM ([22]; HEK293, read-out: % inhibition of steady-state responses, 1 μM QNZ46 applied after activation): 23 ± 1%
inhibition at 1 µM ([22]; HEK293, read-out: % inhibition of steady-state responses, 1 μM QNZ46 present before, during, and after activation): 28 ± 3%
inhibition at 3 µM ([22]; HEK293, read-out: % inhibition of steady-state responses, 3 μM QNZ46 applied after activation): 50 ± 2%
inhibition at 3 µM ([22]; HEK293, read-out: % inhibition of steady-state responses, 3 μM QNZ46 present before, during, and after activation): 46 ± 3%
inhibition at 10 µM ([22]; HEK293, read-out: % inhibition of steady-state responses, 10 μM QNZ46 applied after activation): 75 ± 1%
inhibition at 10 µM ([22]; HEK293, read-out: % inhibition of steady-state responses, 10 μM QNZ46 present before, during, and after activation): 73 ± 2%
inhibition at 20 µM ([22]; HEK293, read-out: % inhibition of steady-state responses, 20 μM QNZ46 applied after activation): 88 ± 1%
inhibition at 20 µM ([22]; HEK293, read-out: % inhibition of steady-state responses, 20 μM QNZ46 present before, during, and after activation): 85 ± 2%
inhibition at 10 µM ([22]; HEK293, read-out: inhibition of the instantaneous current (pre-inhibition), 10 μM QNZ46 alone, nominal absence of glutamate plus glycine): ~11%
IC50 [23]: 15 ± 1 µM
nH (Hill slope) [24]: 1.0
Relative IC50 (IC50 2X / IC50 2D) ([24]; fold shift relative to GluN2D): 3.8
nH (Hill slope) [25, 33]: 1.0 ^a
Relative IC50 (IC50 2X / IC50 2D) ([25]; fold shift relative to GluN2D): 23
nH (Hill slope) [26]: 1.1
Relative IC50 (IC50 2X / IC50 2D) ([26]; fold shift relative to GluN2D): 0.1
IC50 [27]: 0.5 ± 0.02 µM
nH (Hill slope) [28]: 1.0
Relative IC50 (IC50 2X / IC50 2D) [28, 32]: 1.8
nH (Hill slope) [29]: 1.2
Relative IC50 (IC50 2X / IC50 2D) ([29]; fold shift relative to GluN2D): 4.4
IC50 [30]: 17 ± 1 µM

N[C@@H](CCC(=O)O)C(=O)O [glutamate]
EC50 ([31]; in the absence of QNZ46): 0.44 µM
EC50 ([31]; in the presence of 10 μM QNZ46): 0.22 µM
time constant for agonist deactivation (τweighted) [1]: 3810 ms
